Source: patent US9556179B2 (BRISTOL-MYERS SQUIBB COMPANY, priority 2012, dated 2017)
pIC50: −log10 of the molar value.

Tests used:
CK1δ = CK1δ (Homo sapiens (Human), UniProt P48730); experiment: CK1δ kinase assay (Caliper LABCHIP electrophoretic separation of fluoresceinated peptide substrate and product); type: biochemical; conditions: 200 pM enzyme, 50 μM ATP, 22 hours at room temperature
Procedure, shortened: (§1)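 Kinase reactions ran 22 h at room temperature, were stopped with EDTA, and phosphorylated product was separated electrophoretically from unphosphorylated fluoresceinated peptide. Compounds were tested at eleven concentrations from 10 mM DMSO stocks. IC50 by non-linear regression.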

CK1ε = CK1ε (Homo sapiens (Human), UniProt P49674); experiment: CK1ε kinase assay (Caliper LABCHIP electrophoretic separation of fluoresceinated peptide substrate and product); type: biochemical; conditions: 200 pM enzyme, 50 μM ATP, 22 hours at room temperature
Procedure, shortened: as §1

pancreatic tumor cell = conditions: in vitro and in vivo; Brockschmidt et al., Gut 2008; cited from earlier work

Sequence of CK1ε (P49674 whole entry): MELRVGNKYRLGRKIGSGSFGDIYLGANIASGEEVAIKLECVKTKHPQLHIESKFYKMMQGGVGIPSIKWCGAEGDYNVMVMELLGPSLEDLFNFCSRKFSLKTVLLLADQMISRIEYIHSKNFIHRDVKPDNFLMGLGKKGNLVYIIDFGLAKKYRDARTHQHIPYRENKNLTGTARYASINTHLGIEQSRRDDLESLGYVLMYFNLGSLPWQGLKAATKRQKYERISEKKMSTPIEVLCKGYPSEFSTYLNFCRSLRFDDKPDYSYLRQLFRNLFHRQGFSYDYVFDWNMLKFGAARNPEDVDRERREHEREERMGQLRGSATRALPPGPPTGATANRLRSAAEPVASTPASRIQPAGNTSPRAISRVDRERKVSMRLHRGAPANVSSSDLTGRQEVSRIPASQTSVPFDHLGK
Sequence of CK1δ (P48730 whole entry): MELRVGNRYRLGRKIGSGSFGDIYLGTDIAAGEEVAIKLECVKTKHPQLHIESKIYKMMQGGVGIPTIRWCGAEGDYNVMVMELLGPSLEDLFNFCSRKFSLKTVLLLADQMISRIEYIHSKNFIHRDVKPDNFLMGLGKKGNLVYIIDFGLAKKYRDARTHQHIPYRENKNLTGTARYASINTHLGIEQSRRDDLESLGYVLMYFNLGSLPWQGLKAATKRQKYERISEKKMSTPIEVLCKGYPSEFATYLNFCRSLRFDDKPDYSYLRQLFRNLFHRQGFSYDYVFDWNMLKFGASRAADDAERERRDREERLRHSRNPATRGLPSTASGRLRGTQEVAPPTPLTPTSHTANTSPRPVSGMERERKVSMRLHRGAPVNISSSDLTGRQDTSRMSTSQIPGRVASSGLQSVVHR

SMILES | pIC50 (CK1δ) | pIC50 (CK1ε) | pancreatic tumor cell growth (pancreatic tumor cell)
O=C(Nc1cn2nc(-c3c(-c4ccc(F)cc4)nc4n3CCN(C(=O)C3(C(F)(F)F)CC3)C4)ccc2n1)c1ccnc(F)c1 [Compound 472, 2-Fluoro-N-(6-(2-(4-fluorophenyl)-7-(1-(trifluoromethyl)cyclopropanecarbonyl)-5,6,7,8-tetrahydroimidazo[1,2-a]pyrazin-3-yl)imidazo[1,2-b]pyridazin-2-yl)isonicotinamide] | 9.22 | 8.35 | –
CC1(C)CC1C(=O)N1CCn2c(nc(-c3ccc(F)cc3)c2-c2ccc3nc(NC(=O)c4ccnc(F)c4)cn3n2)C1 (stereo not shown) [Compound 473, N-(6-(7-(2,2-Dimethylcyclopropanecarbonyl)-2-(4-fluorophenyl)-5,6,7,8-tetrahydroimidazo[1,2-a]pyrazin-3-yl)imidazo[1,2-b]pyridazin-2-yl)-2-fluoroisonicotinamide] | 9.30 | 8.54 | –
COC(=O)N1CCn2c(nc(-c3ccc(F)cc3)c2-c2ccc3nc(NC(=O)c4ccnc(F)c4)cn3n2)C1 [Compound 474, Methyl 3-(2-(2-fluoroisonicotinamido)imidazo[1,2-b]pyridazin-6-yl)-2-(4-fluorophenyl)-5,6-dihydroimidazo[1,2-a]pyrazine-7(8H)-carboxylate] | 9.00 | 8.03 | –
CS(=O)(=O)N1CCn2c(nc(-c3ccc(F)cc3)c2-c2ccc3nc(NC(=O)c4ccnc(F)c4)cn3n2)C1 [Compound 476, 2-Fluoro-N-(6-(2-(4-fluorophenyl)-7-(methylsulfonyl)-5,6,7,8-tetrahydroimidazo[1,2-a]pyrazin-3-yl)imidazo[1,2-b]pyridazin-2-yl)isonicotinamide] | 9.52 | 8.60 | –
O=C(Nc1cn2nc(-c3c(-c4ccc(F)cc4)nc4n3CCN(CCC(F)(F)F)C4)ccc2n1)c1ccnc(F)c1 [Compound 478, 2-Fluoro-N-(6-(2-(4-fluorophenyl)-7-(3,3,3-trifluoropropyl)-5,6,7,8-tetrahydroimidazo[1,2-a]pyrazin-3-yl)imidazo[1,2-b]pyridazin-2-yl)isonicotinamide] | 9.40 | 8.64 | –
CC(C)(C)NC(=O)N1CCn2c(nc(-c3ccc(F)cc3)c2-c2ccc3nc(NC(=O)c4ccnc(F)c4)cn3n2)C1 [Compound 481, N-(tert-Butyl)-3-(2-(2-fluoroisonicotinamido)imidazo[1,2-b]pyridazin-6-yl)-2-(4-fluorophenyl)-5,6-dihydroimidazo[1,2-a]pyrazine-7(8H)-carboxamide] | 9.22 | 8.27 | –
CC(C)NC(=O)N1CCn2c(nc(-c3ccc(F)cc3)c2-c2ccc3nc(NC(=O)c4ccnc(F)c4)cn3n2)C1 [Compound 482, 3-(2-(2-Fluoroisonicotinamido)imidazo[1,2-b]pyridazin-6-yl)-2-(4-fluorophenyl)-N-isopropyl-5,6-dihydroimidazo[1,2-a]pyrazine-7(8H)-carboxamide] | 8.96 | 7.92 | –
O=C(Nc1cn2nc(-c3c(-c4ccc(F)cc4)nc4n3CCN(C(=O)NC3CC3)C4)ccc2n1)c1ccnc(F)c1 [Compound 483, N-Cyclopropyl-3-(2-(2-fluoroisonicotinamido)imidazo[1,2-b]pyridazin-6-yl)-2-(4-fluorophenyl)-5,6-dihydroimidazo[1,2-a]pyrazine-7(8H)-carboxamide] | 9.40 | 8.41 | –
CC(C)(NC(=O)N1CCn2c(nc(-c3ccc(F)cc3)c2-c2ccc3nc(NC(=O)c4ccnc(F)c4)cn3n2)C1)C(F)(F)F [Compound 484, 3-(2-(2-Fluoroisonicotinamido)imidazo[1,2-b]pyridazin-6-yl)-2-(4-fluorophenyl)-N-(1,1,1-trifluoro-2-methylpropan-2-yl)-5,6-dihydroimidazo[1,2-a]pyrazine-7(8H)-carboxamide] | 9.22 | 8.17 | –
CC1(NC(=O)N2CCn3c(nc(-c4ccc(F)cc4)c3-c3ccc4nc(NC(=O)c5ccnc(F)c5)cn4n3)C2)CC1 [Compound 485, 3-(2-(2-Fluoroisonicotinamido)imidazo[1,2-b]pyridazin-6-yl)-2-(4-fluorophenyl)-N-(1-methylcyclopropyl)-5,6-dihydroimidazo[1,2-a]pyrazine-7(8H)-carboxamide] | 9.30 | 8.35 | –
O=C(Nc1cn2nc(-c3c(-c4ccc(F)cc4)nc4n3CCN(C(=O)NCCC(F)(F)F)C4)ccc2n1)c1ccnc(F)c1 [Compound 486, 3-(2-(2-Fluoroisonicotinamido)imidazo[1,2-b]pyridazin-6-yl)-2-(4-fluorophenyl)-N-(3,3,3-trifluoropropyl)-5,6-dihydroimidazo[1,2-a]pyrazine-7(8H)-carboxamide] | 9.15 | 8.19 | –
CC(C)OC(=O)N1CCn2c(nc(-c3ccc(F)cc3)c2-c2ccc3nc(NC(=O)c4ccnc(F)c4)cn3n2)C1 [Example 475] | 9.15 | 8.09 | –
COc1cc(OC)c(C=C2C(O)=Nc3ccccc32)c(OC)c1 [IC261] | – | – | reduces pancreatic tumor cell growth in vitro and in vivo
